Literature values as cited in patent US20230330126A1, “MODIFIED ADENOSINE NUCLEOSIDE FOR USE IN THE TREATMENT OF VIRAL INFECTIONS” (priority 2020, published 2023).

Assays:
[1] = animal and human studies

Row | half-life [h] | Compound | efficacy compared with theophylline [1] | tolerability profile compared with theophylline [1]
1 | 15 | O=c1[nH]cnc2c1ncn2[C@@H]1O[C@H](CO)[C@@H](O)[C@H]1O [inosine, Inosine] |  | 
2 |  | Cn1c(=O)c2c(ncn2CC2OCCO2)n(C)c1=O [doxofylline, Doxofylline] | comparable efficacy to that of theophylline | better tolerability profile, with significantly fewer side effects
